Source: BigSolDB 2.1

## OC[C@@H](O)C(O)[C@@H](O)CO (some centres undefined)
In acetone, 293.15 K
  solubility (mole fraction): 0.000202
In acetone, 298.15 K
  solubility (mole fraction): 0.00024
In acetone, 303.15 K
  solubility (mole fraction): 0.000302
In acetone, 308.15 K
  solubility (mole fraction): 0.000399
In acetone, 313.15 K
  solubility (mole fraction): 0.000542
In acetone, 318.15 K
  solubility (mole fraction): 0.000739
In acetone, 323.15 K
  solubility (mole fraction): 0.001
In ethanol, 293.15 K
  solubility (mole fraction): 0.00172
In ethanol, 298.15 K
  solubility (mole fraction): 0.0024
In ethanol, 303.15 K
  solubility (mole fraction): 0.00309
In ethanol, 308.15 K
  solubility (mole fraction): 0.00396
In ethanol, 313.15 K
  solubility (mole fraction): 0.00521
In ethanol, 318.15 K
  solubility (mole fraction): 0.00703
In ethanol, 323.15 K
  solubility (mole fraction): 0.0096
